In patent US10548912B2, “Dosage regimen for a tiacumicin compound” (Astellas Pharma Europe Ltd., priority 2015, dated 2020):

Key:
[1] = system: Clostridium difficile infection; assay: Phase IIIb/IV randomized open-label EXTEND study (2819-MA-1002): extended fidaxomicin vs standard vancomycin; format: in vivo, human
Procedure: Fidaxomicin (FDX) is believed to reduce recurrence primarily through minimal collateral damage to colonic microflora. […] Subjects will receive 200 mg twice daily (b.i.d.) for 5 days from Day 1 to Day 5. From Day 6 to Day 25, subjects will receive 200 mg once daily on alternate days (first alternate day dose given on Day 7). This extension of the dose will allow a longer period for the protective microflora to recover and extend the period of time over which Clostridium difficile cells are suppressed, and kill any dormant spores that germinate. The extension of the dose also targets the early recurrence period documented in the phase 3 studies—the first 15 days after the end of therapy during which the majority of recurrences occurred. By covering this period this revised dosing regimen may reduce the recurrence to <10%, preferably to <5% and even more preferred to <3%. The impact on the gut microflora was limited supporting the rationale for this study.
The dosing of vancomycin (Vancocin™) to be administered in this study is in line with the SmPC for Vancocin. Subjects will receive 125 mg four times daily (q.i.d.) for 10 days from Day 1 to Day 10.
The dosage regimen was as described in Table 1 of Example 1.

[2] = oral administration; cited from earlier work
[3] = system: Clostridium difficile toxin A and B; assay: Single patient cases of Examples 6 and 7, indicator-guided switch to intermittent fidaxomicin; format: in vivo, human
Procedure: (§1) A patient being tested positively for Clostridium difficile toxin A and B (using a suitable assay known in the art) and having >5 UBM per day is treated with 200 mg Fidaxomicin twice a day in an initial course of treatment. The number of UBM is monitored daily to establish if the number of UBM will change positively to ≤3 UBM per day. At day 2 of the initial course of treatment the UBM is reduced to 2 UBM per day and at day 3 to 1 UBM per day. Since the UBM is below 4 UBM per day and even below 3 UBM per day for 2 consecutive days, the dosage regimen is switched to the intermittent course of treatment by administering to the patient 200 mg Fidaxomicin every other day starting from day 5 until Clostridium difficile toxin A and B are tested negative. The presence of Clostridium difficile toxin A and B is tested negative at day 12 after start of treatment (using a suitable assay known in the art).
as §1, with “day 9 and 10” for “day 2”, “to” for “to 2 UBM per day and at day”, “3” for “3 to 1”, “4” for “4 UBM per day and even below 3”, “day 12” for “day 5”, “day 27” for “day 12”

[4] = Day 55, extended fidaxomicin or standard vancomycin
[5] = Table 7, extended fidaxomicin regimen of Example 1 or standard vancomycin
[6] = extended fidaxomicin Day 55, standard vancomycin Day 40

Compound: CCc1c(Cl)c(O)c(Cl)c(O)c1C(=O)O[C@H]1[C@H](O)[C@H](OC)[C@H](OC/C2=C\C=C\C[C@H](O)/C(C)=C/[C@H](CC)[C@@H](O[C@@H]3OC(C)(C)[C@@H](OC(=O)C(C)C)[C@H](O)[C@@H]3O)/C(C)=C/C(C)=C/C[C@@H]([C@@H](C)O)OC2=O)O[C@@H]1C [fidaxomicin, 3-[[[6-deoxy-4-O-(3,5-dichloro-2-ethyl-4,6-dihydroxybenzoyl)-2-O-methyl-β-D-mannopyranosyl]oxy]methyl]-12(R)-[[6-deoxy-5-C-methyl-4-O-(2-methyl-1-oxopropyl)-β-D-lyxo-hexopyranosyl]oxy]-11 (S)-ethyl-8(S)-hydroxy-18(S)-(1(R)-hydroxyethyl)-9,13,15-trimethyloxacyclooctadeca-3,5,9,13,15-pentaene-2-one]
- Treatment Difference in sustained clinical cure rate (Extended Fidaxomicin − Standard Vancomycin) ([1]; 30 days after end of treatment): 23.8%
- OR (Odds Ratio) vs. Vancomycin, sustained clinical cure ([1]; 30 days after end of treatment, extended fidaxomicin): 3.36
- % of patients with <3 Unformed bowel movements per day (UBM) ([1]; Day 1): 23%
- % of patients with ≥3 Unformed bowel movements per day (UBM) ([1]; Day 1): 77.0%
- % of patients with <3 Unformed bowel movements per day (UBM) ([1]; Day 2): 33.8%
- % of patients with ≥3 Unformed bowel movements per day (UBM) ([1]; Day 2): 66.2%
- % of patients with <3 Unformed bowel movements per day (UBM) ([1]; Day 3): 59%
- % of patients with ≥3 Unformed bowel movements per day (UBM) ([1]; Day 3): 41%
- % of patients with <3 Unformed bowel movements per day (UBM) ([1]; Day 4): 66.9%
- % of patients with ≥3 Unformed bowel movements per day (UBM) ([1]; Day 4): 33.1%
- % of patients with <3 Unformed bowel movements per day (UBM) ([1]; Day 5): 73.9%
- % of patients with ≥3 Unformed bowel movements per day (UBM) ([1]; Day 5): 26.1%
- % of patients with <3 Unformed bowel movements per day (UBM) ([1]; Day 6): 73.9%
- % of patients with ≥3 Unformed bowel movements per day (UBM) ([1]; Day 6): 26.1%
- % of patients with <3 Unformed bowel movements per day (UBM) ([1]; Day 7): 84.8%
- % of patients with ≥3 Unformed bowel movements per day (UBM) ([1]; Day 7): 15.2%
- % of patients with <3 Unformed bowel movements per day (UBM) ([1]; Day 8): 89.1%
- % of patients with ≥3 Unformed bowel movements per day (UBM) ([1]; Day 8): 10.9%
- % of patients with <3 Unformed bowel movements per day (UBM) ([1]; Day 9): 91.3%
- % of patients with ≥3 Unformed bowel movements per day (UBM) ([1]; Day 9): 8.7%
- % of patients with <3 Unformed bowel movements per day (UBM) ([1]; Day 10): 92.6%
- % of patients with ≥3 Unformed bowel movements per day (UBM) ([1]; Day 10): 7.4%
- % of patients with <3 Unformed bowel movements per day (UBM) ([1]; Day 11): 93.3%
- % of patients with ≥3 Unformed bowel movements per day (UBM) ([1]; Day 11): 6.7%
- % of patients with <3 Unformed bowel movements per day (UBM) ([1]; Day 12): 94.8%
- % of patients with ≥3 Unformed bowel movements per day (UBM) ([1]; Day 12): 5.2%
- % of patients with <3 Unformed bowel movements per day (UBM) ([1]; Day 13): 93.3%
- % of patients with ≥3 Unformed bowel movements per day (UBM) ([1]; Day 13): 6.7%
- % of patients with <3 Unformed bowel movements per day (UBM) ([1]; Day 14): 95.6%
- % of patients with ≥3 Unformed bowel movements per day (UBM) ([1]; Day 14): 4.4%
- % of patients with <3 Unformed bowel movements per day (UBM) ([1]; Day 15): 94.8%
- % of patients with ≥3 Unformed bowel movements per day (UBM) ([1]; Day 15): 5.2%
- % of patients with <3 Unformed bowel movements per day (UBM) ([1]; Day 16): 95.5%
- % of patients with ≥3 Unformed bowel movements per day (UBM) ([1]; Day 16): 4.5%
- % of patients with <3 Unformed bowel movements per day (UBM) ([1]; Day 17): 95.5%
- % of patients with ≥3 Unformed bowel movements per day (UBM) ([1]; Day 17): 4.5%
- % of patients with <3 Unformed bowel movements per day (UBM) ([1]; Day 18): 94.0%
- % of patients with ≥3 Unformed bowel movements per day (UBM) ([1]; Day 18): 6.0%
- % of patients with <3 Unformed bowel movements per day (UBM) ([1]; Day 19): 95.5%
- % of patients with ≥3 Unformed bowel movements per day (UBM) ([1]; Day 19): 4.5%
- % of patients with <3 Unformed bowel movements per day (UBM) ([1]; Day 20): 97.8%
- % of patients with ≥3 Unformed bowel movements per day (UBM) ([1]; Day 20): 2.2%
- % of patients with <3 Unformed bowel movements per day (UBM) ([1]; Day 21): 95.5%
- % of patients with ≥3 Unformed bowel movements per day (UBM) ([1]; Day 21): 4.5%
- % of patients with <3 Unformed bowel movements per day (UBM) ([1]; Day 22): 96.3%
- % of patients with ≥3 Unformed bowel movements per day (UBM) ([1]; Day 22): 3.7%
- % of patients with <3 Unformed bowel movements per day (UBM) ([1]; Day 23): 95.5%
- % of patients with ≥3 Unformed bowel movements per day (UBM) ([1]; Day 23): 4.5%
- % of patients with <3 Unformed bowel movements per day (UBM) ([1]; Day 24): 96.2%
- % of patients with ≥3 Unformed bowel movements per day (UBM) ([1]; Day 24): 3.8%
- % of patients with <3 Unformed bowel movements per day (UBM) ([1]; Day 25): 96.2%
- % of patients with ≥3 Unformed bowel movements per day (UBM) ([1]; Day 25): 3.8%
- % of patients with <3 Unformed bowel movements per day (UBM) ([1]; Day 26): 97.3%
- % of patients with ≥3 Unformed bowel movements per day (UBM) ([1]; Day 26): 2.7%
- % of patients with <3 Unformed bowel movements per day (UBM) ([1]; Day 27): 98.5%
- % of patients with ≥3 Unformed bowel movements per day (UBM) ([1]; Day 27): 1.5%
- Treatment Difference in recurrence rate (Extended fidaxomicin − Standard vancomycin) ([1]; Day 55): −12.6%
- OR (Odds Ratio) vs. Vancomycin, recurrence of CDI ([1]; Day 55, extended fidaxomicin): 0.21
- Recurrence of CDI (%) at visit 5 (Day 55) [1, 4]: (3.5) %
- Recurrence of CDI at visit 5 (Day 55) (patients/N) [1, 4]: 5/142
- Recurrence of CDI (%) at visit 5 (Day 55) ([1]; Day 55, extended fidaxomicin or standard vancomycin, listed as FDX): 3.5%
- Recurrence 30 days after end of treatment (%) [1, 5]: 3.5%
- Recurrence 30 days after end of treatment (patients/N) [1, 5]: 5/142
- Sustained clinical cure (%) at 30 days after end of treatment [1, 6]: (86.7) %
- Sustained clinical cure at 30 days after end of treatment (patients/N) [1, 6]: 124/143
- Sustained clinical cure (%) at 30 days after end of treatment ([1]; extended fidaxomicin Day 55, standard vancomycin Day 40, listed as FDX): 86.7%
- Absorption from the intestinal tract [2]: poorly absorbed
- UBM per day ([3]; Example 6 patient, day 2 of initial course 200 mg twice a day, >5 UBM per day before): 2 UBM per day
- UBM per day ([3]; Example 6 patient, day 3 of initial course 200 mg twice a day): 1 UBM per day
- Presence of Clostridium difficile toxin A and B ([3]; Example 6 patient, day 12 after start of treatment, 200 mg every other day from day 5): negative
- UBM per day ([3]; Example 7 patient, day 9 and 10 of initial course 200 mg twice a day, >5 UBM per day before): 3 UBM per day
- Presence of Clostridium difficile toxin A and B ([3]; Example 7 patient, day 27 after start of treatment, 200 mg every other day from day 12): negative
